In patent publication US20220033407A1, “N-(pyridin-2-ylsulfonyl)cyclopropanecarboxamide Derivatives and their Use in the Treatment of Disease” (NOVARTIS AG, priority 2018, published 2022):

Target: T1, delF508-CFTR-HRP (Homo sapiens, UniProt P13569, DEL508-508)
T1 construct: expressed in transfected cells
Experiment: Measurement of delF508-CFTR-HRP surface expression in CFBE41o- cells (HRP luminescence);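 as to DelF508-CFTR-HRP Amax %: percent efficacy relative to a reference CFTR corrector compound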
Assay type: cell-based
Conditions: for Emax: CFBE41o-, read-out: DelF508-CFTR-HRP Amax %; for EC50: mean of at least two replicates
Source text: Measurement of delF508-CFTR-HRP Surface Expression in CFBE41o-Cells
This assay quantifies the cell surface expressions of the mutant CFTR channel using an extracellular HRP tag.
A cellular assay was developed to measure surface expression of horseradish peroxidase (HRP) tagged delF508-CFTR in the human bronchial epithelial immortalized CFBE41o-cell line (Phuan, P. W., et al, (2014) Molecular Pharmacology 86:42-51). Specifically, the HRP sequence was inserted into the fourth extracellular loop of delF508-CFTR and stably expressed in CFBE41o-cells. Cells were seeded in 384 well plate at a density of 5000 cells/well and incubated at 37° C. for 12 to 24 hours in medium (Gibco MEM #11095, 10% FBS, 10 mM HEPES, […], 200 μg/mL G418, 3 μg/mL Puromycin). The delF508-CFTR-HRP expression was induced with 500 ng/mL doxycycline (Sigma D-9891, dissolved in H2O and sterile filtered) in medium and the cells were incubated at 37° C. for 48 h. Old medium was removed and fresh medium was added containing 500 ng/mL doxycycline and unknown test compound at required test concentration in DMSO, not exceeding 0.5% final DMSO concentration. The highest concentration tested was 10 μM with a 10-point concentration response curve using a 3-fold dilution. After addition of compounds, the cells were incubated for 24 h at 37° C. On the final day, cells were washed four times in PBS containing 1 mM MgCl2 and 0.1 mM CaCl2. HRP-Substrate (SuperSignal ELISA Pico, Fisher #37069) 20 μl/well was added and the luminescence signal was determined (Viewlux, Perkin Elmer). Light was emitted upon addition of exogenous HRP-Substrate only when delF508-CFTR-HRP reached the cell surface and the HRP tag was accessible to the HRP-Substrate (note: HRP-Substrate cannot cross the lipid bilayer to reach delF508-CFTR-HRP misfolded within the cell).
The median activity for the lowest concentration of the compounds on each assay plate was calculated and this value was used to normalize the signal for each well on the respective plate. Three replicates at each concentrations for every compound were run to determine one EC50. The median value was determined and used to calculate compound activities as described below. Effective half maximal values (EC50) were calculated for each compound by performing logistic regression on measured dose-response data points using the equation: […]
where “Y” is the observed activity, “Bottom” is the lowest observed value, “Top” is the highest observed value, and the “Hill coefficient” gives the largest absolute value of the slope. The curve fitting is carried out by a curve fitting program implemented at GNF using Matlab (Mathworks). The dose response curves also were used to calculate Fold Change (FC) using the equation: […]
Compound efficacy relative to the reference compound 3-(6-(1-(2,2-difluorobenzo[d][1,3]dioxol-5-yl)cyclopropane-1-carboxamido)-3-methylpyridin-2-yl)benzoic acid was determined using the following formula: […]

T1 sequence (P13569 with tags, fused parts or gaps DEL508-508): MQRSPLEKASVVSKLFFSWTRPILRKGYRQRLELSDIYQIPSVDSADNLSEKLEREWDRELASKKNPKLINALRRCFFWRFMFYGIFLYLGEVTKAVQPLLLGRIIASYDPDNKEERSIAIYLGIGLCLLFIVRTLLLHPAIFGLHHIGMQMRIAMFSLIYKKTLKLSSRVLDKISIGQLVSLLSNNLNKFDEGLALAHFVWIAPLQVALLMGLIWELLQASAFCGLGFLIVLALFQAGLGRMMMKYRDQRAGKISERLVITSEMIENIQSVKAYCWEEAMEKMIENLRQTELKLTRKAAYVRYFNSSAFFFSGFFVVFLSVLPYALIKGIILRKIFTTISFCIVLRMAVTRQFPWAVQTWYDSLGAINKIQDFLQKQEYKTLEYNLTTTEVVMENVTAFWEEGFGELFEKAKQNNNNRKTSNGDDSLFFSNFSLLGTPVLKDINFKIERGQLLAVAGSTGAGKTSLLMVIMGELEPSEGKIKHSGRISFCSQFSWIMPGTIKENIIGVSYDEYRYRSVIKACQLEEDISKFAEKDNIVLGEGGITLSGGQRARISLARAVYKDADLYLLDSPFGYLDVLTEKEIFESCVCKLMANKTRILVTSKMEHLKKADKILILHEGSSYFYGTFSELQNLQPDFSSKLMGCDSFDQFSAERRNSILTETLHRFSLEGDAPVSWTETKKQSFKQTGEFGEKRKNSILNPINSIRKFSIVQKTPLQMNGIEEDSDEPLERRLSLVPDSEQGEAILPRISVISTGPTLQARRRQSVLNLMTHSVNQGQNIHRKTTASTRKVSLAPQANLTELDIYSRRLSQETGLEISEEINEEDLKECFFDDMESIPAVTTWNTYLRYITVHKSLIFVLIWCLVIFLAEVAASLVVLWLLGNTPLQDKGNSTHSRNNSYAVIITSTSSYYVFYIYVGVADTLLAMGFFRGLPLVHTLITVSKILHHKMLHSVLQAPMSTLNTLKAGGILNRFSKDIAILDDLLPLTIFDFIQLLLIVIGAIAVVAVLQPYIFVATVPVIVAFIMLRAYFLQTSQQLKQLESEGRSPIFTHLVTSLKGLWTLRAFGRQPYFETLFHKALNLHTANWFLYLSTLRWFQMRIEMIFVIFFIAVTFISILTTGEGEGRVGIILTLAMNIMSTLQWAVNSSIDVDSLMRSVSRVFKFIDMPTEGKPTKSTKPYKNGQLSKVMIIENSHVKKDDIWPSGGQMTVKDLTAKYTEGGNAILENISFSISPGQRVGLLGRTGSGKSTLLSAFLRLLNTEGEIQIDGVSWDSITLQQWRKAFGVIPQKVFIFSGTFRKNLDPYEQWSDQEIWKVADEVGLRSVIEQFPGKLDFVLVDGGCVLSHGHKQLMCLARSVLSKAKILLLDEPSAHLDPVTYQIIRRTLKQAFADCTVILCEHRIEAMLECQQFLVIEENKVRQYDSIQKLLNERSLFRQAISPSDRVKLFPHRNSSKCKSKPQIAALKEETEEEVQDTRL

| Emax [%] | EC50 [µM] | DelF508-CFTR-HRP Amax % [%] | SMILES |
| --- | --- | --- | --- |
| 329 | 1.84 |  | CC1(C)CCN(c2ccc(C(F)(F)F)cc2OC2(C(=O)NS(=O)(=O)c3cccc(N4CC[C@H](O)C4)n3)CC2)CC1 [Example 9-26, (S)-1-(2-(4,4-Dimethylpiperidin-1-yl)-5-(trifluoromethyl)phenoxy)-N-((6-(3-hydroxypyrrolidin-1-yl)pyridin-2-yl)sulfonyl)cyclopropanecarboxamide] |
| 307 | 0.43 |  | CC1(C)CCN(c2ccc(Cl)cc2OC2(C(=O)NS(=O)(=O)c3cccc(N4CCC5(CC4)OCc4ccccc45)n3)CC2)CC1 [Example 10-8, N-((6-(3H-spiro[isobenzofuran-1,4′-piperidin]-1′-yl)pyridin-2-yl)sulfonyl)-1-(5-chloro-2-(4,4-dimethylpiperidin-1-yl)phenoxy)cyclopropanecarboxamide] |
| 519 | 0.37 |  | Cc1ccc(OC2CCC(C(C)(C)C)CC2)c(OC2(C(=O)NS(=O)(=O)c3cccc(N4CCC(C)(O)CC4)n3)CC2)c1 (stereo not drawn) [Example 6-5, 1-(2-((4-(tert-butyl)cyclohexyl)oxy)-5-methylphenoxy)-N-((6-(4-hydroxy-4-methylpiperidin-1-yl)pyridin-2-yl)sulfonyl)cyclopropanecarboxamide] |
| 840 | 0.44 |  | CC(C)(C)C1(O)CCN(c2cccc(S(=O)(=O)NC(=O)C3(Oc4cc(Cl)ccc4C4CC5(CCC5)C4)CC3)n2)CC1 [Example 7-4, N-((6-(4-(tert-butyl)-4-hydroxypiperidin-1-yl)pyridin-2-yl)sulfonyl)-1-(5-chloro-2-(spiro[3.3]heptan-2-yl)phenoxy)cyclopropanecarboxamide] |
| 493 | 0.88 |  | O=C(NS(=O)(=O)c1cccc(N2CC3(CCO3)C2)n1)C1(Oc2cc(Cl)ccc2C2CC3(CCC3)C2)CC1 [Example 7-5, N-((6-(1-oxa-6-azaspiro[3.3]heptan-6-yl)pyridin-2-yl)sulfonyl)-1-(5-chloro-2-(spiro[3.3]heptan-2-yl)phenoxy)cyclopropanecarboxamide] |
| 119 | 4.61 |  | Cc1ccc(C2CCCCC2)c(OC2(C(=O)NS(=O)(=O)c3cccc(N4CCCC(N)C4)n3)CC2)c1 (stereo not drawn) [Example 2-13, N-((6-(3-Aminopiperidin-1-yl)pyridin-2-yl)sulfonyl)-1-(2-cyclohexyl-5-methylphenoxy)cyclopropanecarboxamide] |
| 204 | 4.04 |  | O=C(NS(=O)(=O)c1cccc(N2CC[C@H](O)C2)n1)C1(Oc2cc(Cl)ccc2N2CC3(CCCCO3)C2)CC1 [Example 9-8, (S)-1-(5-Chloro-2-(5-oxa-2-azaspiro[3.5]nonan-2-yl)phenoxy)-N-((6-(3-hydroxypyrrolidin-1-yl)pyridin-2-yl)sulfonyl)cyclopropanecarboxamide] |
| 189 | 2.17 |  | CC1(C)CCN(c2ccc(Cl)cc2OC2(C(=O)NS(=O)(=O)c3cccc(N)n3)CC2)CC1 [Example 9-45, N-((6-Aminopyridin-2-yl)sulfonyl)-1-(5-chloro-2-(4,4-dimethylpiperidin-1-yl)phenoxy)cyclopropane-1-carboxamide] |
| 234 | 1.55 |  | Cc1ccc(N2CCC(C)(C)CC2)c(OC2(C(=O)NS(=O)(=O)c3cccc(N)n3)CC2)c1 [Example 9-44, N-((6-Aminopyridin-2-yl)sulfonyl)-1-(2-(4,4-dimethylpiperidin-1-yl)-5-methylphenoxy)cyclopropane-1-carboxamide] |
| 176 | 1.29 |  | CC1CC(C)CN(c2ccc(Cl)cc2OC2(C(=O)NS(=O)(=O)c3cccc(N4CC[C@H](O)C4)n3)CC2)C1 (stereo partly drawn) [Example 9-17, 1-(5-Chloro-2-(3,5-dimethylpiperidin-1-yl)phenoxy)-N-((6-((S)-3-hydroxypyrrolidin-1-yl)pyridin-2-yl)sulfonyl)cyclopropanecarboxamide] |
|  | 0.96 | 93.6 | CC(C)(C)C1CCC(Nc2ccc(Cl)cc2OC2(C(=O)NS(=O)(=O)c3cccc(N4CC[C@H](O)C4)n3)CC2)CC1 (single isomer, unassigned) [Example 9-5-1] |
| 204 | 2.47 |  | O=C(NS(=O)(=O)c1cccc(N2CC[C@H](O)C2)n1)C1(Oc2cc(Cl)ccc2-c2ccc3occc3c2)CC1 [Example 5-12, (S)-1-(2-(Benzofuran-5-yl)-5-chlorophenoxy)-N-((6-(3-hydroxypyrrolidin-1-yl)pyridin-2-yl)sulfonyl)cyclopropane-1-carboxamide] |
| 366 | 0.6 |  | O=C(NS(=O)(=O)c1cccc(N2CCC(O)(C(F)(F)F)CC2)n1)C1(Oc2cc(Cl)ccc2N2CC3(CCCCC3)C2)CC1 [Example 9-2, 1-(5-chloro-2-(2-azaspiro[3.5]nonan-2-yl)phenoxy)-N-((6-(4-hydroxy-4-(trifluoromethyl)piperidin-1-yl)pyridin-2-yl)sulfonyl)cyclopropanecarboxamide] |
|  | 0.57 | 726.4 | CC1(C)CCN(c2ccc(Cl)cc2OC2(C(=O)NS(=O)(=O)c3cccc(N4CCC(C)(O)C4)n3)CC2)CC1 (single isomer, unassigned) [Example 9-39-1, 1-(5-Chloro-2-(4,4-dimethylpiperidin-1-yl)phenoxy)-N-((6-(3-hydroxy-3-methylpyrrolidin-1-yl)pyridin-2-yl)sulfonyl)cyclopropane-1-carboxamide] |
| 755 | 0.55 |  | C[C@]1(O)CCN(c2cccc(S(=O)(=O)NC(=O)C3(Oc4cc(Cl)ccc4N4CCC5(CC4)CC5)CC3)n2)C1 [Example 9-28, (S)-1-(5-Chloro-2-(6-azaspiro[2.5]octan-6-yl)phenoxy)-N-((6-(3-hydroxy-3-methylpyrrolidin-1-yl)pyridin-2-yl)sulfonyl)cyclopropanecarboxamide] |
|  | 0.33 | 678.4 | CC(C)(C)C1CCC(Nc2ccc(Cl)cc2OC2(C(=O)NS(=O)(=O)c3cccc(N4CC[C@H](O)C4)n3)CC2)CC1 (single isomer, unassigned) [Example 9-5-2] |
| 381 | 1.24 |  | O=C(NS(=O)(=O)c1cccc(N2CC3CCC(C2)O3)n1)C1(Oc2cc(Cl)ccc2C2CC3(CCC3)C2)CC1 [Example 7-16, N-((6-(8-Oxa-3-azabicyclo[3.2.1]octan-3-yl)pyridin-2-yl)sulfonyl)-1-(5-chloro-2-(spiro[3.3]heptan-2-yl)phenoxy)cyclopropane-1-carboxamide] |
| 289 | 2.18 |  | Cc1ccc(OC2CCCC2)c(OC2(C(=O)NS(=O)(=O)c3cccc(N4CCC(C)(C#N)CC4)n3)CC2)c1 [Example 6-2, N-((6-(4-cyano-4-methylpiperidin-1-yl)pyridin-2-yl)sulfonyl)-1-(2-(cyclopentyloxy)-5-methylphenoxy)cyclopropanecarboxamide] |
|  | 2.65 | 242.9 | Cc1ccc(C2CCC3(CCC3)OC2)c(OC2(C(=O)NS(=O)(=O)c3cccc(N4CCC(C)(O)CC4)n3)CC2)c1 (single isomer, unassigned) [Example 11-4-2, N-((6-(4-hydroxy-4-methylpiperidin-1-yl)pyridin-2-yl)sulfonyl)-1-(5-methyl-2-(5-oxaspiro[3.5]nonan-7-yl)phenoxy)cyclopropane-1-carboxamide] |
| 477 | 0.29 |  | O=C(NS(=O)(=O)c1cccc(N2CC[C@H](O)C2)n1)C1(Oc2cc(Cl)ccc2N2CCCC3(CCCC3)C2)CC1 [Example 9-15, (S)-1-(5-Chloro-2-(7-azaspiro[4.5]decan-7-yl)phenoxy)-N-((6-(3-hydroxypyrrolidin-1-yl)pyridin-2-yl)sulfonyl)cyclopropanecarboxamide] |
| 181 | 2.95 |  | Cc1cnc(N2CCC(C)(C)CC2)c(OC2(C(=O)NS(=O)(=O)c3cccc(N4CC[C@H](O)C4)n3)CC2)c1 [Example 10-11, (S)-1-((2-(4,4-dimethylpiperidin-1-yl)-5-methylpyridin-3-yl)oxy)-N-((6-(3-hydroxypyrrolidin-1-yl)pyridin-2-yl)sulfonyl)cyclopropanecarboxamide] |
